Experimental data taken from patent US20220107328A1, “METHODS OF TREATING LIVER DISEASES” (Camp4 Therapeutics Corporation, priority 2018, published 2022).

Key:
[1] = system: mTOR signaling of phospho-4E-BP1; settings: cited from earlier work
PCSK9 mRNA = assay: qRT-PCR of PCSK9 mRNA in primary hepatocytes; type: cell-based, human; settings: donor 4178, 3 μM, relative to GUSB
[2] = system: phosphorylated NDRG1 (pNDRG1/NDRG1); assay: Western blot of phosphorylated NDRG1 in human hepatocytes; type: cell-based; settings: 3 μM, mTORC2 pathway, time point not stated
Protocol: (§1) Levels of phosphorylated S6, AKT, and NDRG1 proteins were determined as compared to total S6, AKT, and NDRG1 protein. PNPLA3 mRNA expression was quantified and normalized to housekeeping gene GUSB.

[3] = system: PNPLA3 mRNA in mouse liver; assay: High sucrose diet mouse pharmacology study, liver PNPLA3 mRNA; type: in vivo; settings: for PNPLA3 liver mRNA after exclusion of outliers and re-analysis (in words) / PNPLA3 liver mRNA, dose titration (in words): 6 hours post dose; for PNPLA3 liver mRNA, dose titration (in words): decreasing doses QD oral gavage four days
Protocol: LY2157299 was also tested in vivo. C57BL/6J mice were divided into […]. Each group had 6 male mice. […] Groups 1-10 received food throughout the dosing period. […] Eyes were also collected for groups 11-14.
Mouse liver tissues were pulverized in liquid nitrogen and aliquoted into small microtubes. TRIzol (Invitrogen Cat #15596026) was added to the tubes to facilitate cell lysis from tissue samples. The TRIzol solution containing the disrupted tissue was then centrifuged and the supernatant phase was collected. Total RNA was extracted from the supernatant using Qiagen RNA Extraction Kit (Qiagen Cat#74182) and the PNPLA3 mRNA levels were analyzed using qRT-PCR.
C57BL/6J mice were divided into 14 groups. Each group had 6 male mice. All mice were given an HS diet at night on a synchronized schedule. […] The animals received no food at night on Day 10.
Mouse liver tissues were pulverized in liquid nitrogen and aliquoted into small microtubes. TRIzol (Invitrogen Cat #15596026) was added to the tubes to facilitate cell lysis from tissue samples. The TRIzol solution containing the disrupted tissue was then centrifuged and the supernatant phase was collected. Total RNA was extracted from the supernatant using Qiagen RNA Extraction Kit (Qiagen Cat #74182) and the target mRNA levels were analyzed using qRT-PCR. mRNA levels for PNPLA3, PNPLA5, COL1A1, and PCSK9 were assessed.

COL1A1 mRNA = assay: qRT-PCR of COL1A1 mRNA in human primary hepatic stellate cells; type: cell-based; settings: 3 μM, relative to GAPDH
[4] = system: triglyceride content in HepG2 cells; assay: AdipoRed staining and triglyceride quantification of lipid droplet fraction in HepG2 cells; type: cell-based; settings: 72 hours; for TG (nmol/ug protein) (±Standard Deviation): lipid droplet fraction
Protocol: HepG2 cells were treated with OSI-027 as described in Example 1. DMSO was used as a control. After treatment, the cells were stained with the AdipoRedTM Assay Reagent (cat #PT-7009) according to the manufacturer's instructions. Parallel treatment samples were processed for triglyceride quantification. For triglyceride quantification, HepG2 cells were treated with OSI-027 for 72 hours. Cells were collected and the lipid droplet (LD) fraction of the cell lysate enriched using the lipid droplet isolation kit (Cell Biolabs Inc., #[…]) per the manufacturer's instructions. The triglyceride content of the LD-enriched fraction measured using a Triglyceride Quantification Kit (Biovision Inc., #K622) per manufacturer's protocol, with a fluorimetric read-out.

[5] = system: phosphorylated S6 (pS6/S6); assay: Western blot of phosphorylated S6 in human hepatocytes; type: cell-based; settings: 3 μM; for phosphorylated S6 (pS6/S6) over time (in words): 35 min to 20 hrs, relative to DMSO control; for pS6/S6: human hepatocytes, mTORC1 pathway, time point not stated
Protocol: as §1

[6] = Serum insulin quantification in mice (ELISA); type: in vivo, mouse
Protocol: Mouse 7-8 week old C57BL/6J mice were divided into 9 groups. Each group had 8 male mice. All mice were given a high sucrose diet for 10 days (Diet no. 901683; 74% kCal from sucrose. […] Food was removed at the start of the light cycle, about 7 am, except on the last day, when food was left in the cage until termination. On day 7-10, mice were administered daily (QD) via oral gavage, candidate compounds at a volume of 10 mL/kg with the compound in vehicle solution (0.5% methylcellulose/0.2% tween20). Vehicle alone was administered to control group 1. OSI-027 was administered at 25 mg/kg, 10 mg/kg, 5 mg/kg, and 2 mg/kg to groups 2-5. […] The treatment was administered in the evening on Days 7 to 10 and in the morning on Day 11, starting at 5 am. On Day 11, mice were terminated 4 hours post last dose at 9 am, for a total of 5 doses of each candidate compound. Mice were weighed 2×/week until Day 11. Liver and blood samples were collected after mice were terminated. Liver samples were process for mRNA extraction as previously described. Blood samples were processed for serum collection. […] Serum insulin levels in mouse samples were quantified using an ELISA kit purchased from Crystal Chem (Catalog #90080), per the manufacturer's instructions.

PNPLA3 mRNA = assay: qRT-PCR of PNPLA3 mRNA in human primary hepatic stellate cells; type: cell-based; settings: for Relative PNPLA3 level vs Untreated (±Standard Deviation): normalized to GAPDH; for PNPLA3 expression in stellate cells from different donors (in words): donors I/I and M/M, eight concentrations
[7] = system: lipid content in primary human hepatocytes (M/M homozygous); assay: Lipid (Oil Red O) staining of primary human hepatocytes; type: cell-based; settings: 3.3 μM
Description: DMSO and chloroquine were used as controls. After treatment, the cells were fixed and stained with ORO using the BioVision Lipid (Oil Red O) Staining Kit (cat #K580-24) according to the manufacturer's instructions. Parallel treatment samples were processed for qRT-PCR as previously described. Representative light microscopy images of each treatment are shown in FIG. 14A and a quantification of the PNPLA3 mRNA levels are shown in FIG. 14B.

[8] = HS diet mice, QD oral gavage four days, OSI-027 50 mg/kg, PF-04691502 10 mg/kg

For COc1cccc2cc(-c3nc([C@H]4CC[C@H](C(=O)O)CC4)n4ncnc(N)c34)[nH]c12 [OSI-027], the IC50 [1] is given as 1000 nM, the “Primary Hepatocytes 4178 PCSK9 (fold change in mRNA expression)” value (PCSK9 mRNA) is given as 0.69 and the p-NDRG1/NDRG1 [2] is given as 0.46. The “PNPLA3 liver mRNA after exclusion of outliers and re-analysis (in words)” value [3] was “more significant dose dependent decrease in PNPLA3 mRNA”, the “PNPLA3 liver mRNA, 6 hours post-dose (in words)” value [3, 8] was “reduced PNPLA3 mRNA” and the “PNPLA3 liver mRNA, 12 hours post-dose (in words)” value ([3]; HS diet mice, QD oral gavage four days, OSI-027 50 mg/kg, PF-04691502 10 mg/kg, LY2157299 75 mg/kg) was “reduced PNPLA3 mRNA”. For the same compound, the “PNPLA3 liver mRNA, dose titration (in words)” value ([3]; HS diet mice) was “dose dependent decrease”, the “Primary Stellate cells COL1A1 (fold change in mRNA expression)” value (COL1A1 mRNA) was 0.51 and the “TG (nmol/ug protein) (±Standard Deviation)” value ([4]; 0.33 μM) was 0.24 ± 0.02828 nmol/ug protein. The “TG (nmol/ug protein) (±Standard Deviation)” value ([4]; 1 μM) was 0.235 ± 0.03535 nmol/ug protein, the “triglyceride content (in words)” value [4] was “reduced triglyceride content in HepG2 cells” and the “phosphorylated S6 (pS6/S6) over time (in words)” value [5] was “decreased at 1 hour”. The pS6/S6 [5] was 0.06, the “serum insulin (in words)” value ([6]; 10 mg/kg, 5 mg/kg, and 2 mg/kg) was “no significant changes in serum glucose or serum insulin levels” and the “serum insulin (in words)” value ([6]; 25 mg/kg) was “significant increased”. The “Relative PNPLA3 mRNA expression” value (PNPLA3 mRNA; 0.04 uM, Table 36 (cell type not given)) was 1.071, the “Relative PNPLA3 mRNA expression” value (PNPLA3 mRNA; 0.122 uM, Table 36) was 0.795 and the “Relative PNPLA3 mRNA expression” value (PNPLA3 mRNA; 0.37 uM, Table 36) was 0.427. For the same compound, the “Primary Stellate cells PNPLA3 (fold change in mRNA expression)” value (PNPLA3 mRNA; 3 μM, relative to GAPDH) was 0.57, the “Relative PNPLA3 mRNA expression” value (PNPLA3 mRNA; 3.3 uM, Table 36) was 0.262 and the “Relative PNPLA3 level vs Untreated (±Standard Deviation)” value (PNPLA3 mRNA; (I/I) homozygous human stellate cells, 0.00045 uM) was 1.25 ± 0.10. The “Relative PNPLA3 level vs Untreated (±Standard Deviation)” value (PNPLA3 mRNA; (I/I) homozygous human stellate cells, 0.012 uM) was 0.89 ± 0.05, the “Relative PNPLA3 level vs Untreated (±Standard Deviation)” value (PNPLA3 mRNA; (I/I) homozygous human stellate cells, 0.037 uM) was 0.97 ± 0.12 and the “Relative PNPLA3 level vs Untreated (±Standard Deviation)” value (PNPLA3 mRNA; (I/I) homozygous human stellate cells, 0.33 uM) was 0.57 ± 0.05. For the same compound, the “Relative PNPLA3 level vs Untreated (±Standard Deviation)” value (PNPLA3 mRNA; (I/I) homozygous human stellate cells, 1 uM) was 0.62 ± 0.09, the “Relative PNPLA3 level vs Untreated (±Standard Deviation)” value (PNPLA3 mRNA; (M/M) homozygous human stellate cells, 0.00045 uM) was 0.96 ± 0.12 and the “Relative PNPLA3 level vs Untreated (±Standard Deviation)” value (PNPLA3 mRNA; (M/M) homozygous human stellate cells, 0.012 uM) was 0.92 ± 0.12. For the same compound, the “Relative PNPLA3 level vs Untreated (±Standard Deviation)” value (PNPLA3 mRNA; (M/M) homozygous human stellate cells, 0.037 uM) was 1.08 ± 0.04, the “Relative PNPLA3 level vs Untreated (±Standard Deviation)” value (PNPLA3 mRNA; (M/M) homozygous human stellate cells, 0.33 uM) was 0.63 ± 0.03 and the “Relative PNPLA3 level vs Untreated (±Standard Deviation)” value (PNPLA3 mRNA; (M/M) homozygous human stellate cells, 1 uM) was 0.60 ± 0.05. For the same compound, the EC50 (PNPLA3 mRNA; Homo sapiens, PNPLA3 dose-response, Stellate cell (M/M)) was 62 nM, the “PNPLA3 expression in stellate cells from different donors (in words)” value (PNPLA3 mRNA) was “effectively decreased PNPLA3 expression in a dose-dependent manner” and the “lipid content (in words)” value [7] was “reduced lipid content in primary human hepatocytes”.
For COc1ccc(-c2cc3c(C)nc(N)nc3n([C@H]3CC[C@H](OCCO)CC3)c2=O)cn1 [PF-04691502], the p-NDRG1/NDRG1 [2] was 0.46, the “PNPLA3 liver mRNA after exclusion of outliers and re-analysis (in words)” value [3] was “greater decrease in PNPLA3 mRNA” and the “PNPLA3 liver mRNA, 6 hours post-dose (in words)” value [3, 8] was “reduced PNPLA3 mRNA at 6 hours post-dose”. For the same compound, the “PNPLA3 liver mRNA, dose titration (in words)” value ([3]; HS diet mice) was “dose dependent decrease in PNPLA3 and PNPLA5 mRNA”, the “phosphorylated S6 (pS6/S6) over time (in words)” value [5] was “decreased at 1 hour” and the pS6/S6 [5] was 0.06. The “serum insulin (in words)” value ([6]; 1 mg/kg) was “moderate increases in serum insulin”, the “serum insulin (in words)” value ([6]; 10 mg/kg, 5 mg/kg, and 2 mg/kg) was “significant serum glucose and serum insulin increases” and the mrna remaining at 1 µM (PNPLA3 mRNA; Human Stellate, 1 uM, read-out: PNPLA3 mRNA remaining after treatment compared to untreated cells) was 20%. For the same compound, the mrna remaining at 10 µM (PNPLA3 mRNA; Human Stellate, 10 uM, read-out: PNPLA3 mRNA remaining after treatment compared to untreated cells) was 35%, the “PNPLA3 expression in stellate cells from different donors (in words)” value (PNPLA3 mRNA) was “effectively decreased PNPLA3 expression in a dose-dependent manner” and the “lipid content (in words)” value [7] was “reduced lipid content in primary human hepatocytes”.
